From patent US20140349970A1 (ABBVIE INC., priority 2009, published 2014)
Where two headings read alike, the source gives them in different places.

Biological target: T1, Syk catalytic domain (aa 356-635 with a C-terminal His-tag) (Homo sapiens, UniProt P43405)
T1 construct: His-tag (C); made in house
Test: In vitro Syk kinase activity measured by trFRET, Syk catalytic domain
Assay type: biochemical
Summary of the method: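 Kinase reaction: 0.14 nM His-tagged catalytic domain, 0.2 μM biotin-TYR1 peptide, 0.001 mM ATP in 50 mM MOPSO pH 6.5 with MgCl2, MnCl2, DTT, BSA, vanadate, ~60 min at rt, then EDTA quench. Phosphoproduct detected by trFRET (Eu anti-pTyr antibody/streptavidin-APC, 665 nm emission); IC50 from signal in linear range.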

[1] = Syk catalytic domain (aa 356-635), trFRET, 0.001 mM ATP

Row | SMILES | IC50 [1] [nM] | IC50 [nM]
1 | COc1ccc(-c2nn(C)c3c2cnc2[nH]cc(C#N)c23)cc1 [M.2.3] | < 100 | 
2 | COc1ccc(-c2nc(CCN(C)C)n3c2cnc2[nH]ccc23)cc1 [N.1.105] | 1000 to 10000 | 
3 | CC(C)(O)c1ccc(-c2nc(CC3CCNCC3)n3c2cnc2[nH]ccc23)cc1 [T.4.1.2] |  | < 100
4 | CC(C)(O)c1ccc(-c2nc(C3CCOCC3)n3c2cnc2[nH]cc(C#N)c23)cc1 [AE.1.1] |  | 1000 to 10000
5 | Cc1nc(-c2ccc(S(C)(=O)=O)cc2)c2cnc3[nH]ccc3n12 [AC.1.6] |  | 100 to 1000
6 | CC(C)(O)c1ccc(-c2nc(C3CCCCC3)n3c2cnc2[nH]ccc23)cc1 [N.1.49] | < 100 | 
7 | COc1ccc(-c2nc(C)n3c2cnc2[nH]ccc23)s1 [AC.1.31] |  | < 100
8 | COc1ccc(-c2n[nH]c3c2cnc2[nH]ccc23)cc1 [AU.1.2] |  | < 100
9 | COc1cc(-c2ncn3c2cnc2[nH]ccc23)ccn1 [AC.4.3] |  | 100 to 1000
10 | CC(C)(O)c1ccc(-c2nc([C@@H]3CCNC3)n3c2cnc2[nH]ccc23)cc1 [P.3.1.10] |  | 100 to 1000
11 | Cc1nc(-c2ccc(C3(O)CCN(C(=O)CC#N)CC3)cc2)c2cnc3[nH]ccc3n12 [J.1.3.1] | < 100 | 
12 | CC(C)(O)c1ccc(-c2nc(-c3cccnc3C#N)n3c2cnc2[nH]ccc23)cc1 [Example 6, 3-(3-(4-(2-Hydroxypropan-2-yl)phenyl)-6H-imidazo[1,5-a]pyrrolo[2,3-e]pyrazin-1-yl)picolinonitrile] | 1000 to 10000 | 
13 | CC(C)(N)CCc1nc(-c2ccc(C(C)(C)O)cc2)c2cnc3[nH]ccc3n12 [T.4.1.3] |  | 100 to 1000
14 | Cc1cc(C(C)(C)O)ccc1-c1nc(C)n2c1cnc1[nH]ccc12 [N.1.104] | 1000 to 10000 | 
15 | CS(=O)(=O)NCc1ccc(-c2nc(C3CCCCC3)n3c2cnc2[nH]ccc23)cc1 [AC.3.18] |  | 100 to 1000
16 | COc1ccc2c(c1)c(-c1cc3c(ncc4cnc([C@@H]5CCNC5)n43)[nH]1)cn2C [T.1.1.2, (R)-7-(5-Methoxy-1-methyl-1H-indol-3-yl)-1-(pyrrolidin-3-yl)-6H-imidazo[1,5-a]pyrrolo[2,3-e]pyrazine diacetate] | < 100 | 

Row | SMILES | IC50 [1] [nM] | IC50 [nM]
17 | COc1ccc(-c2nc([C@@H]3CC[C@H](N)C3)n3c2cnc2[nH]ccc23)cc1 [P.3.1.2] |  | 100 to 1000
18 | COc1ccc(-c2nc(C)n3c2cnc2[nH]ccc23)c(CO)c1 [AC.1.2] |  | 1000 to 10000
19 | CC(C)(O)c1ccc(-c2nc([C@@H]3CCCN(C(=O)C4(C#N)CC4)C3)n3c2cnc2[nH]ccc23)cc1 [D.2.2] | 100 to 1000 | 
20 | CC(C)(CO)c1ccc(-c2ncn3c2cnc2[nH]ccc23)cc1 [AC.4.1] |  | < 100
21 | CS(=O)(=O)c1ccc(-c2nc(C3CCCN(C(=O)CCO)C3)n3c2cnc2[nH]ccc23)cc1 (centres unmarked) [N.1.62] | 1000 to 10000 | 
22 | CC(C)(O)c1ccc(-c2nc([C@@H]3CCCC[C@H]3CN)n3c2cnc2[nH]ccc23)cc1 (racemic) [N.1.78] | 100 to 1000 | 
23 | COCCNC(=O)c1ccc(-c2nc(C3CCCCC3)n3c2cnc2[nH]ccc23)cc1 [AC.3.17] |  | 100 to 1000
24 | COc1ccc(-c2nc(C)n3c2cnc2[nH]ccc23)c(Cl)c1 [AC.1.19] |  | 1000 to 10000
25 | COc1ccc(-c2nc([C@H]3CCC[C@@H](N)C3)n3c2cnc2[nH]ccc23)cc1 [T.3.1.3] |  | 100 to 1000
26 | CC(C)(O)c1ccc(-c2nc(-c3cccnc3C#N)n3c2cnc2[nH]ccc23)cc1 [D.3.1] | < 100 | 
27 | COc1ccc(-c2nc(CN3CCNCC3)n3c2cnc2[nH]ccc23)cc1 [T.3.1.4] |  | 100 to 1000
28 | Cc1nc(-c2ccc(C3(CO)CC3)cc2)c2cnc3[nH]ccc3n12 [AC.1.36] |  | 100 to 1000
29 | COc1ccc2c(c1)c(-c1cc3c(ncc4cnc(C5CCCOC5)n43)[nH]1)cn2C (centres unmarked) [M.1, 7-(5-Methoxy-1-methyl-1H-indol-3-yl)-1-(tetrahydro-2H-pyran-3-yl)-6H-imidazo[1,5-a]pyrrolo[2,3-e]pyrazine] | < 100 | 
30 | Cc1nc(-c2ccc(S(=O)(=O)NC3CC3)cc2)c2cnc3[nH]ccc3n12 [AC.1.40] |  | 100 to 1000
31 | CC(=O)N1CCC[C@@H]1c1nc(-c2ccc(C(C)(C)O)cc2)c2cnc3[nH]ccc3n12 [AC.5.1] |  | 100 to 1000
32 | Cc1ccc(-c2nc(C3CCCCC3)n3c2cnc2[nH]ccc23)cc1 [AC.3.32] |  | 100 to 1000

The remaining lines, values ahead:

Row | IC50 [1] [nM] | IC50 [nM] | SMILES
33 |  | < 100 | CCc1c(-c2ccc(C(C)(C)O)cc2)[nH]c2ncc3cccn3c12 [S.1.6]
34 |  | 100 to 1000 | Cc1nc(-c2ccc(CO)cc2)c2cnc3[nH]ccc3n12 [AC.1.34]
35 | 100 to 1000 |  | COc1ccc2c(n1)c(-c1cc3c(ncc4cnn(C)c43)[nH]1)cn2C [N.1.116]
36 | < 100 |  | COc1ccc(-c2nn(C)c3c2cnc2[nH]cc(Br)c23)cc1 [AK.1, 8-Bromo-3-(4-methoxyphenyl)-1-methyl-1,6-dihydropyrazolo[3,4-d]pyrrolo[2,3-b]pyridine]
37 |  | 100 to 1000 | CC(=O)c1ccc(-c2nn(C)c3c2cnc2[nH]ccc23)cc1 [W.1.1, 1-(4-(1-Methyl-1,6-dihydropyrazolo[3,4-d]pyrrolo[2,3-b]pyridin-3-yl)phenyl)ethanone]
38 | < 100 |  | CC(=O)NCc1cccc(-c2cc3c(ncc4cnn(C)c43)[nH]2)c1 [N.1.3]
39 | < 100 |  | COCCN(C)c1cnc2cnc3[nH]c(-c4cn(C)c5ccc(OC)cc45)cc3n12 [M.1.21]
40 | 100 to 1000 |  | CCc1c(-c2ccc(C(=O)NCCN3CCOCC3)cc2)[nH]c2ncc3cnn(C)c3c12 [N.1.36]
41 | 1000 to 10000 |  | CCc1c(-c2cccc(C(=O)NCCN3CCOCC3)c2)[nH]c2ncc3cnn(C)c3c12 [N.1.30]
42 | 100 to 1000 |  | CCc1c(-c2ccc(C(C)(C)O)cc2)[nH]c2ncc3nccn3c12 [Example 4, 2-(4-(1-Ethyl-3H-imidazo[1,2-a]pyrrolo[2,3-e]pyrazin-2-yl)phenyl)propan-2-ol]
43 | < 100 |  | Cn1cc(-c2cc3c(ncc4cnn(C)c43)[nH]2)c2cc(C(=O)NC(C)(C)CO)ccc21 [J.2.2.1]
44 |  | < 100 | Cc1nc(-c2ccc(C(C)(C)O)c(F)c2)c2cnc3[nH]ccc3n12 [AC.1.20]
45 | < 100 |  | CCCc1nc(-c2ccc(OC)cc2)c2cnc3[nH]ccc3n12 [N.1.92]
46 | < 100 |  | COc1ccc2c(c1)c(-c1cc3c(ncc4cnn(C)c43)[nH]1)cn2CC(=O)N(C)C [N.1.25]
47 | < 100 |  | Cn1cc(-c2cc3c(ncc4cnn(C)c43)[nH]2)c2cc(F)ccc21 [N.1.17]
48 | < 100 |  | COc1ccc(-c2cc3c(ncc4cnc(C)n43)[nH]2)cc1 [M.1.25]
49 | > 10000 |  | CN1CCN(C(=O)Cn2cccc2-c2cc3c(ncc4cnn(C)c43)[nH]2)CC1 [J.2.3.3]
50 |  | < 100 | Cn1nc(-c2ccc(C(C)(C)O)cc2)c2cnc3[nH]ccc3c21 [S.1.3]
51 | < 100 |  | COc1ccc2c(c1)c(-c1cc3c(ncc4cnn(C)c43)[nH]1)cn2CC(=O)N1CCOCC1 [N.2.9]
52 | < 100 |  | COc1ccc2c(c1)c(-c1cc3c(ncc4cnn(C)c43)[nH]1)cn2CC(O)CN(C)C (centres unmarked) [N.1.29]
53 | 100 to 1000 |  | CCCCC(=O)NCc1cccc(-c2cc3c(ncc4cnn(C)c43)[nH]2)c1 [J.1.1.4]
54 |  | 100 to 1000 | CCCNC(=O)c1ccc(-c2ncn3c2cnc2[nH]ccc23)cc1 [AC.4.7]
55 | < 100 |  | CN(C)C(=O)c1ccc2c(-c3cc4c(ncc5cnn(C)c54)[nH]3)cn(C)c2c1 [J.1.4.1]

Row | IC50 [1] [nM] | IC50 [nM] | SMILES
56 | 1000 to 10000 |  | CN1CCc2cnc3[nH]c(-c4ccc(C(C)(C)O)cc4)cc3c21 [N.1.23]
57 |  | 100 to 1000 | CC(=O)Nc1cccc(-c2nc(C3CCCCC3)n3c2cnc2[nH]ccc23)c1 [AC.3.3]
58 | < 100 |  | COc1ccc2c(c1)c(-c1cc3c(ncc4cnc(CCCN)n43)[nH]1)cn2C [T.1.1.3]
59 | 100 to 1000 |  | CS(=O)(=O)c1cccc(-c2cc3c(ncc4cnc(C5CCCOC5)n43)[nH]2)c1 (centres unmarked) [M.1.5]
60 |  | 100 to 1000 | Cc1nc(-c2ccc(OCC(=O)O)cc2)c2cnc3[nH]ccc3n12 [AC.1.16]
61 | 100 to 1000 |  | CC(C)(O)c1ccc(-c2ncn3c2cnc2[nH]cc(CO)c23)cc1 [N.1.110]
62 | 100 to 1000 |  | COc1ccc(-c2nc(C)n3c2cnc2[nH]ccc23)cc1C(N)=O [J.1.7.4]
63 | 100 to 1000 |  | COCCCNC(=O)Cc1cccc(-c2cc3c(ncc4cnn(C)c43)[nH]2)c1 [N.1.11]
64 | 100 to 1000 |  | Cc1ccc(-c2cc3c(ncc4cnc(N5CCCC5)n43)[nH]2)cc1 [M.1.18]
65 | 1000 to 10000 |  | COc1ccc(-c2cc3c(ncc4c(C)ncn43)[nH]2)cc1 [M.1.23]
66 | < 100 |  | COc1ccc2c(c1)c(-c1cc3c(ncc4cnn(C)c43)[nH]1)cn2CCO [N.2.12]
67 |  | 100 to 1000 | O=S(=O)(NCCO)c1cccc(-c2nc(C3CCCCC3)n3c2cnc2[nH]ccc23)c1 [AC.3.21]
68 | 100 to 1000 |  | COc1ccc2c(c1)c(-c1cc3c(ncc4cnc(CN)n43)[nH]1)cn2C [T.2.1, (7-(5-Methoxy-1-methyl-1H-indol-3-yl)-6H-imidazo[1,5-a]pyrrolo[2,3-e]pyrazin-1-yl)methanamine]
69 | < 100 |  | COc1ccc2c(c1)c(-c1cc3c(ncc4cnn(C)c43)[nH]1)cn2CC(=O)N1CCN(C)CC1 [N.2.14]
70 | < 100 |  | Cn1ncc2cnc3[nH]c(-c4cccc(S(N)(=O)=O)c4)cc3c21 [N.1.13]
71 | 100 to 1000 |  | COC(=O)Cn1cc(-c2nc(C)n3c2cnc2[nH]ccc23)cn1 [Example 12, Methyl 2-(4-(1-methyl-6H-imidazo[1,5-a]pyrrolo[2,3-e]pyrazin-3-yl)-1H-pyrazol-1-yl)acetate]
72 | < 100 |  | COc1ccc2c(c1)c(-c1cc3c(ncc4cnc(CCN)n43)[nH]1)cn2C [T.1.1.4]
73 |  | 100 to 1000 | COCCOc1ccc(-c2nc(C)n3c2cnc2[nH]ccc23)cc1 [AC.1.15]
74 | 100 to 1000 |  | CCc1c[nH]c2ncc3c(-c4ccc(OC(C)C)cc4)nn(C)c3c12 [N.1.69]
75 | 1000 to 10000 |  | CCc1c(-c2ccc(OCCN(C)C)cc2)[nH]c2ncc3cnn(C)c3c12 [N.1.80]
76 | 100 to 1000 |  | CCc1c[nH]c2ncc3c(-c4cnn(C)c4)nn(C)c3c12 [N.1.76]
77 |  | 100 to 1000 | CCc1c(-c2ccc(C(C)(C)N)cc2)[nH]c2ncc3cnn(C)c3c12 [P.3.1.3]
